Experimental data taken from patent US20130267494A1, “1,4-OXAZEPANE DERIVATIVES” (priority 2010, published 2013).
Where a name gives a salt, the structure may show the parent alone.

Columns and labels:
Type in all cases: cell-based
[1] = target: T1, human serotonin transporter (Homo sapiens, UniProt P31645); assay: Inhibitory action on human serotonin transporter ([3H]-5-hydroxytryptamine uptake in CHO cells); details: relative to inhibitory activity of 10 μM Paroxetine as 100%; for inhibition at 1 µM / inhibition at 10 µM: CHO, read-out: inhibitory rate (%)
T1 construct: expressed in transfected cells
T1 sequence (P31645 whole entry): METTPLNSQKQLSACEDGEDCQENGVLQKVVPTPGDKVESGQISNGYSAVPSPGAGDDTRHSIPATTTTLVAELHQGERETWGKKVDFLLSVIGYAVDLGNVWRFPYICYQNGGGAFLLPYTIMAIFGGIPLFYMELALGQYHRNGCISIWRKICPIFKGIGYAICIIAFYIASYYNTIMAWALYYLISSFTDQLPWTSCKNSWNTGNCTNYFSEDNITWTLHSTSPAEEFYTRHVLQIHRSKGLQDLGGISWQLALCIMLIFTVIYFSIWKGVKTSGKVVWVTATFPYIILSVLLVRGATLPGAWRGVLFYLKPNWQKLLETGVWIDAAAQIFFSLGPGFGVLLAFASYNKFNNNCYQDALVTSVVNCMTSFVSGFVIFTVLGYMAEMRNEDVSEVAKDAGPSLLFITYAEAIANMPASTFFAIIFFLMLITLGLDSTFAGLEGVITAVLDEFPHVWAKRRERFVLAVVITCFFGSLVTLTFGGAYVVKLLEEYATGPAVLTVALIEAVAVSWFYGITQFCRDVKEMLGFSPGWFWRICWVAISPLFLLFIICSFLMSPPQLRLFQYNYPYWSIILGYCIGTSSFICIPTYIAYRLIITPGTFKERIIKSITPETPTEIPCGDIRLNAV
Source text: (§1) Human serotonin transporter cDNA was amplified from human brain cDNA library by PCR, and inserted into pCRII-TOPO vector (manufactured by Invitrogen). The base sequence was confirmed and modified, and subcloned to pcDNA3.1 vector (manufactured by Invitrogen), whereby a human serotonin transporter expression plasmid was constructed. Human norepinephrine transporter cDNA was purchased from Invitrogen, and the base sequence was confirm and modified, and subcloned to pcDNA3.1 vector, whereby a human norepinephrine transporter expression plasmid was constructed.
(§2) The monoamine transporter expression plasmids thus prepared were introduced into CHO-K1 cells using FuGENE6 (manufactured by Roche Diagnostics) and according to the attached protocol, whereby each expressing cell was established.
CHO cells stably expressing a human serotonin transporter were used for the measurement of human serotonin transporter inhibitory activity. Unless particularly indicated, these CHO cells were cultured in a Ham/F12 medium (Invitrogen) containing 10% fetal bovine serum (MOREGATE).
(§3) The cultured cells that reached almost confluent were rinsed with PBS (Invitrogen), detached with Trypsin/EDTA (Invitrogen), and collected by a centrifugal operation. The obtained cells were counted, and diluted to 3×10^5 cells per 1 mL medium, the mixture was dispensed to a 96 well white plate (Corning) at 100 μL per well, and cultured overnight in a CO2 incubator.
(§4) Then, an assay buffer (126 mM NaCl, 4.95 mM KCl, 1.26 mM KH2PO4, 1.26 mM MgSO4, 10 mM HEPES, 2.32 mM CaCl2, 5.52 mM Glucose, 0.5% BSA) was prepared, the medium in the cell plate was removed and the assay buffer was added by 80 μL. A test compound was diluted with the assay buffer to a 10-fold concentration of the final concentration, and the mixture was dispensed to a 96 well polypropylene plate. The diluted test compound was dispensed to the cell plate by 10 μL. [3H]-5-Hydroxytryptamine (GE Healthcare) was diluted with the assay buffer to 200 nM, and the mixture was dispensed to the cell plate by 10 μL. At 20 min from [3H]-5-hydroxytryptamine addition, the assay buffer was removed by suction, and the plate was washed twice with 150 μL of PBS (Invitrogen) per well. Microscinti20 (PerkinElmer) was dispensed to each well by 100 μL, and the mixture was stirred for about 30 min. The radioactivity was measured by TopCount (PerkinElmer).
The inhibitory activity of each compound (10 μM) was calculated as a relative activity value based on the inhibitory activity of 10 μM Paroxetine (serotonin transporter inhibitor) as 100%.
In addition, the inhibitory activity of each compound (1 μM) was calculated as a relative activity value based on the inhibitory activity of 10 μM Paroxetine (serotonin transporter inhibitor) as 100%.

[2] = target: T2, human norepinephrine transporter (Homo sapiens, UniProt P23975); assay: Inhibitory action on human norepinephrine transporter ([3H]-norepinephrine uptake in CHO cells); details: relative to inhibitory activity of 10 μM DMI as 100%; for inhibition at 1 µM / inhibition at 10 µM: CHO, read-out: inhibitory rate (%)
T2 construct: expressed in transfected cells
T2 sequence (P23975 whole entry): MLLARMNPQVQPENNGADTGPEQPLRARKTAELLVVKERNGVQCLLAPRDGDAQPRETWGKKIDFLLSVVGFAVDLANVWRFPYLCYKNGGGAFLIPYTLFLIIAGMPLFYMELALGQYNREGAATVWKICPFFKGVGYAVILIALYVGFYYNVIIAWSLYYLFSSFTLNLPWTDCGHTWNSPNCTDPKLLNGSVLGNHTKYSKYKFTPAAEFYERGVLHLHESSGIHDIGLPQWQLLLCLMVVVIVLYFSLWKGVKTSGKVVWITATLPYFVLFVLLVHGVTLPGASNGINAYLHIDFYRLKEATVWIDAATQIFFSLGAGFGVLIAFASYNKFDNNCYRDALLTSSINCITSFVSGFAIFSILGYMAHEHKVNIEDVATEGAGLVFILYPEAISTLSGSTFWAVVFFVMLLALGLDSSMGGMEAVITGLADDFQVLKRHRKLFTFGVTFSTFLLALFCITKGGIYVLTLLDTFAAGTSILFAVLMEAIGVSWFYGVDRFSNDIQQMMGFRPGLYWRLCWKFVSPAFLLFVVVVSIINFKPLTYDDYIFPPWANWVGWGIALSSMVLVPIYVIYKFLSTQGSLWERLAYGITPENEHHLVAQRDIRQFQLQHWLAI
Source text: as §1, §2
CHO cells stably expressing human norepinephrine transporter were used for the measurement of human norepinephrine transporter inhibitory activity. Unless otherwise indicated, these CHO cells were cultured in Ham/F12 medium (Invitrogen) containing 10% fetal bovine serum (MOREGATE).
as §3, with “medium, and” for “medium,”
as §4, with “μL. [3H]-Norepinephrine” for “μL. [3H]-5-Hydroxytryptamine”, “At 45” for “At 20”, “from [3H]-norepinephrine” for “from [3H]-5-hydroxytryptamine”
The inhibitory activity of each compound (10 μM) was calculated as a relative activity value based on the inhibitory activity of 10 μM DMI (norepinephrine transporter inhibitor) as 100%.
The inhibitory activity of each compound (1 μM) was calculated as a relative activity value based on the inhibitory activity of 10 μM DMI (norepinephrine transporter inhibitor) as 100%.

[3] = target: T3, human dopamine transporter (Homo sapiens, UniProt Q01959); assay: Inhibitory action on human dopamine transporter ([3H]-dopamine uptake in CHO cells); details: relative to inhibitory activity of 100 μM Nomifensine as 100%; for inhibition at 1 µM / inhibition at 10 µM: CHO, read-out: inhibitory rate (%)
T3 construct: expressed in transfected cells
T3 sequence (Q01959 whole entry): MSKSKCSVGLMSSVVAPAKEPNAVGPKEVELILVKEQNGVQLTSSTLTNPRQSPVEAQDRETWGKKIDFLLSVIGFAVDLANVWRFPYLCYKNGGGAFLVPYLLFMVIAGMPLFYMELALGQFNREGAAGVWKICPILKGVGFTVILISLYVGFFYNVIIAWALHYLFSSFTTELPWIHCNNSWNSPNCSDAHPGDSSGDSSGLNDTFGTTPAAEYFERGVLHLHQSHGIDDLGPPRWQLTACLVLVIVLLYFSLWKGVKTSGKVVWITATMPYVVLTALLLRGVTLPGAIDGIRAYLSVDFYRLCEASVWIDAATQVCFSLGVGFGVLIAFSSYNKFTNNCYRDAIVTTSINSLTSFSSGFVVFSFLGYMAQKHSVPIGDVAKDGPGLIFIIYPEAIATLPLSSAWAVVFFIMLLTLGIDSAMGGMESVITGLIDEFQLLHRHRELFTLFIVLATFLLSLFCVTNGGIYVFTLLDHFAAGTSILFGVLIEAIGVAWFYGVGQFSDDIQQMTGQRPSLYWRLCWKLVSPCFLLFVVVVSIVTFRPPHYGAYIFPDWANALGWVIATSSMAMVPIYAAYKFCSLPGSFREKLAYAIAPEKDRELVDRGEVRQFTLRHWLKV
Source text: SRα promoter contained in pTB1411 described in JP-A-H5-076385 was cleaved with restriction enzyme […](manufactured by TAKARA BIO INC.), blunt-ended, further cleaved with restriction enzyme EcoRI (manufactured by TAKARA BIO INC.), and fragmented. On the other hand, pCI vector was cleaved with restriction enzyme BglII (manufactured by TAKARA BIO INC.), blunt-ended with T4 DNA polymerase, and further cleaved with restriction enzyme EcoRI (manufactured by TAKARA BIO INC.). Into this site was inserted an SRa promoter fragment to give pCI-SRa. Then, pCI-SRa was cleaved with restriction enzyme ClaI (manufactured by TAKARA BIO INC.) and blunt-ended. Into this site was inserted a 1.63 Kb fragment obtained by cleaving pGFP-C1 (manufactured by TOYOBO) with restriction enzyme Bsu36I (manufactured by Daiichi Pure Chemicals Co., Ltd.) followed by blunt-ending, whereby pMSRα neo was prepared. Human dopamine transporter cDNA was amplified from human substantia nigra cDNA library by PCR, and inserted into the pCRII vector (manufactured by Invitrogen). The base sequence was confirmed, modified and subcloned to pMSRα neo, whereby a human dopamine transporter expression plasmid was constructed.
as §2
CHO cells stably expressing human dopamine transporter were used for the measurement of human dopamine transporter inhibitory activity. Unless otherwise indicated, these CHO cells were cultured in Ham/F12 medium (Invitrogen) containing 10% fetal bovine serum (MOREGATE).
as §3, with “One day before the assay, the cultured” for “The cultured”, “medium, and” for “medium,”
as §4, with “On the day of the test, an” for “Then, an”, “μL. [3H]-Dopamine” for “μL. [3H]-5-Hydroxytryptamine”, “nM, cold dopamine was diluted to 10 μM,” for “nM,”, “At 60” for “At 20”, “from [3H]-dopamine” for “from [3H]-5-hydroxytryptamine”
The inhibitory activity of each compound (10 μM) was calculated as a relative activity value based on the inhibitory activity of 100 μM Nomifensine (dopamine transporter inhibitor) as 100%.
The inhibitory activity of each compound (1 μM) was m calculated as a relative activity value based on the inhibitory activity of 100 μM Nomifensine (dopamine transporter inhibitor) as 100%.

[4] = compound 10 μM, CHO cells expressing human serotonin transporter

| SMILES | inhibition at 1 µM ([1]; compound 1 μM) [%] | inhibition at 10 µM [1, 4] [%] | inhibition at 1 µM ([2]; compound 1 μM) [%] | inhibition at 10 µM ([2]; compound 10 μM) [%] | inhibition at 1 µM ([3]; compound 1 μM) [%] | inhibition at 10 µM ([3]; compound 10 μM) [%] | inhibitory rate (%) ([1]; compound 1 μM) | inhibitory rate (%) [1, 4] [%] | inhibitory rate (%) ([2]; compound 1 μM) | inhibitory rate (%) ([2]; compound 10 μM) | inhibitory rate (%) ([3]; compound 1 μM) | inhibitory rate (%) ([3]; compound 10 μM) |
| --- | --- | --- | --- | --- | --- | --- | --- | --- | --- | --- | --- | --- |
| CS(=O)(=O)C[C@H]1CNCCOC1c1ccc(F)c(Cl)c1 (mixture of isomers) [Example 12, (6RS,7SR)-7-(3-chloro-4-fluorophenyl)-6-[(methylsulfonyl)methyl]-1,4-oxazepane monohydrochloride] | 87 | 97 | 97 | 100 | 39 | 90 | – | – | – | – | – | – |
| OC[C@H]1NCCOC[C@@H]1c1ccc(Cl)c(Cl)c1 (racemic) [Example 14, [(5RS,6SR)-6-(3,4-dichlorophenyl)-1,4-oxazepan-5-yl]methanol monohydrochloride] | – | – | – | – | – | – | 31 | 79 | 98 | 100 | 87 | 99 |
| COC1(c2ccc(Cl)c(Cl)c2)CNCCOC1 (racemic) [Example 17, (6RS)-6-(3,4-dichlorophenyl)-6-methoxy-1,4-oxazepane monohydrochloride] | 70 | 96 | 75 | 97 | 19 | 53 | – | – | – | – | – | – |
| NS(=O)(=O)NCC1(c2ccc(Cl)c(Cl)c2)CCNCCO1 (racemic) [Example 22, N-{[(7RS)-7-(3,4-dichlorophenyl)-1,4-oxazepan-7-yl]methyl}sulfamide monohydrochloride] | 82 | 98 | 97 | 99 | 25 | 63 | – | – | – | – | – | – |
| CS(=O)(=O)NCC1(c2ccc(Cl)c(Cl)c2)CNCCCO1 (racemic) [Example 24, N-{[(2RS)-2-(3,4-dichlorophenyl)-1,4-oxazepan-2-yl]methyl}methanesulfonamide monohydrochloride] | 87 | 99 | 94 | 99 | 20 | 50 | – | – | – | – | – | – |
| OC[C@H]1OCCNC[C@H]1c1ccc(Cl)c(Cl)c1 (racemic) [Example 25, [(6RS,7SR)-6-(3,4-dichlorophenyl)-1,4-oxazepan-7-yl]methanol monohydrochloride] | 29 | 65 | 99 | 100 | 46 | 94 | – | – | – | – | – | – |
| CS(=O)(=O)C[C@@H]1CNCCO[C@@H]1c1ccc(Cl)c(Cl)c1 (racemic) [Example 50, (6RS,7SR)-7-(3,4-dichlorophenyl)-6-[(methylsulfonyl)methyl]-1,4-oxazepane monohydrochloride] | 100 | – | 98 | – | 64 | – | – | – | – | – | – | – |

Further lines, with some results ahead:

| inhibition at 1 µM ([1]; compound 1 μM) [%] | inhibition at 10 µM [1, 4] [%] | inhibition at 1 µM ([2]; compound 1 μM) [%] | inhibition at 10 µM ([2]; compound 10 μM) [%] | inhibition at 1 µM ([3]; compound 1 μM) [%] | inhibition at 10 µM ([3]; compound 10 μM) [%] | SMILES | inhibitory rate (%) ([1]; compound 1 μM) | inhibitory rate (%) [1, 4] [%] | inhibitory rate (%) ([2]; compound 1 μM) | inhibitory rate (%) ([2]; compound 10 μM) | inhibitory rate (%) ([3]; compound 1 μM) | inhibitory rate (%) ([3]; compound 10 μM) |
| --- | --- | --- | --- | --- | --- | --- | --- | --- | --- | --- | --- | --- |
| 99 | – | 97 | – | 29 | – | CCNC(=O)NC[C@@H]1CNCCO[C@@H]1c1ccc(Cl)c(Cl)c1 (racemic) [Example 52, 1-{[(6RS,7RS)-7-(3,4-dichlorophenyl)-1,4-oxazepan-6-yl]methyl}-3-ethylurea monohydrochloride] | – | – | – | – | – | – |
| 98 | – | 100 | – | 64 | – | CC(=O)N[C@@H]1CNCCO[C@@H]1c1ccc(Cl)c(Cl)c1 (racemic) [Example 62, N-[(6RS,7RS)-7-(3,4-dichlorophenyl)-1,4-oxazepan-6-yl]acetamide monohydrochloride] | – | – | – | – | – | – |
| 93 | – | 100 | – | 82 | – | CS(=O)(=O)N[C@@H]1CNCCO[C@@H]1c1ccc(Cl)c(Cl)c1 (racemic) [Example 63, N-[(6RS,7RS)-7-(3,4-dichlorophenyl)-1,4-oxazepan-6-yl]methanesulfonamide monohydrochloride] | – | – | – | – | – | – |
